In ChEMBL document CHEMBL1667751, “Synthesis and antimicrobial activity of highly functionalised novel β-lactam grafted spiropyrrolidines and pyrrolizidines” (2011) one finds zone of inhibition data, which are given here for ten compounds.

In assay [1] the test system is Staphylococcus aureus. Kind of assay: Antibacterial activity against Staphylococcus aureus at 100 ug/ml after 24 hrs agar diffusion method. Format: functional. As to conditions: read-out: DIZ. A general note: In agar diffusion tests the substance spreads into inoculated agar from a disc or well.
For assay [2], the system named is Staphylococcus aureus. Kind of assay: Antibacterial activity against Staphylococcus aureus at 50 ug/ml after 24 hrs agar diffusion method. Format: functional. As to conditions: read-out: DIZ.
The subject of assay [3] is Salmonella typhi. Put plainly: Antibacterial activity against Salmonella typhi at 100 ug/ml after 24 hrs agar diffusion method. Format: functional, Salmonella enterica subsp. enterica serovar Typhi. Conditions: Salmonella enterica, read-out: DIZ.
Assay [4] relates to Proteus vulgaris. Kind of assay: Antibacterial activity against Proteus vulgaris at 50 ug/ml after 24 hrs agar diffusion method. It is filed as functional. As to conditions: read-out: DIZ.
For assay [5], the system named is Salmonella typhi. Kind of assay: Antibacterial activity against Salmonella typhi at 75 ug/ml after 24 hrs agar diffusion method. It is filed as functional, Salmonella enterica subsp. enterica serovar Typhi. As to conditions: Salmonella enterica, read-out: DIZ.
The subject of assay [6] is Salmonella typhi. Put plainly: Antibacterial activity against Salmonella typhi at 50 ug/ml after 24 hrs agar diffusion method. It is filed as functional, Salmonella enterica subsp. enterica serovar Typhi. Conditions: Salmonella enterica, read-out: DIZ.
Assay [7] concerns Proteus vulgaris. Kind of assay: Antibacterial activity against Proteus vulgaris at 25 ug/ml after 24 hrs agar diffusion method. Conditions: read-out: DIZ. Format: functional.
Assay [8] deals with Proteus mirabilis. Kind of assay: Antibacterial activity against Proteus mirabilis at 50 ug/ml after 24 hrs agar diffusion method. Format: functional. As to conditions: read-out: DIZ.
Assay [9] has as its system Staphylococcus aureus. Put plainly: Antibacterial activity against Staphylococcus aureus at 25 ug/ml after 24 hrs agar diffusion method. Format: functional. Conditions: read-out: DIZ.
Assay [10] has as its system Proteus mirabilis. Kind of assay: Antibacterial activity against Proteus mirabilis at 100 ug/ml after 24 hrs agar diffusion method. As to conditions: read-out: DIZ. Format: functional.
Assay [11] relates to Staphylococcus aureus. Put plainly: Antibacterial activity against Staphylococcus aureus at 75 ug/ml after 24 hrs agar diffusion method. Format: functional. Conditions: read-out: DIZ.
The subject of assay [12] is Proteus mirabilis. Kind of assay: Antibacterial activity against Proteus mirabilis at 75 ug/ml after 24 hrs agar diffusion method. Format: functional. Conditions: read-out: DIZ.
The test system of assay [13] is Proteus vulgaris. Put plainly: Antibacterial activity against Proteus vulgaris at 75 ug/ml after 24 hrs agar diffusion method. Format: functional. Conditions: read-out: DIZ.
In assay [14] the test system is Salmonella typhi. Put plainly: Antibacterial activity against Salmonella typhi at 25 ug/ml after 24 hrs agar diffusion method. Format: functional, Salmonella enterica subsp. enterica serovar Typhi. As to conditions: Salmonella enterica, read-out: DIZ.
Assay [15] relates to Proteus mirabilis. Kind of assay: Antibacterial activity against Proteus mirabilis at 25 ug/ml after 24 hrs agar diffusion method. It is filed as functional. Conditions: read-out: DIZ.
The subject of assay [16] is Proteus vulgaris. Kind of assay: Antibacterial activity against Proteus vulgaris at 100 ug/ml after 24 hrs agar diffusion method. It is filed as functional. As to conditions: read-out: DIZ.

As to `CCOC(=O)[C@@H]1[C@@H]([C@H]2[C@@H](Oc3ccccc3)C(=O)N2c2ccc(OC)cc2)CN(C)C12C(=O)c1ccccc1C2=O`, the zone of inhibition at 100 µg/mL in the assay on Staphylococcus aureus [1] was 18 mm; with Salmonella typhi [3], 19 mm; with Proteus mirabilis [10], 18 mm; in the assay with Proteus vulgaris [16], 23 mm. For the same compound, the zone of inhibition at 50 µg/mL with Staphylococcus aureus [2] is 13 mm; in the assay on Proteus vulgaris [4] it was 16 mm; in the assay with Salmonella typhi [6], 11 mm; in the assay with Proteus mirabilis [8], 13 mm. Further, the zone of inhibition at 75 µg/mL with Salmonella typhi [5] worked out at 13 mm; with Staphylococcus aureus [11] it was 16 mm; with Proteus mirabilis [12], 16 mm; with Proteus vulgaris [13], 20 mm. Further, the zone of inhibition at 25 µg/mL is 12 mm in the assay with Proteus vulgaris [7], 11 mm in the assay with Staphylococcus aureus [9], 9 mm in the assay on Salmonella typhi [14] and 9 mm in the assay on Proteus mirabilis [15].
For `CCOC(=O)[C@@H]1[C@@H]([C@H]2[C@@H](c3ccccc3)C(=O)N2c2ccc(OC)cc2)CN(C)C12C(=O)c1ccccc1C2=O`, the zone of inhibition at 100 µg/mL turned out to be 22 mm with Staphylococcus aureus [1], 18 mm in the assay on Salmonella typhi [3], 18 mm in the assay on Proteus mirabilis [10] and 21 mm in the assay with Proteus vulgaris [16]. Further, the zone of inhibition at 50 µg/mL with Staphylococcus aureus [2] worked out at 15 mm; in the assay with Proteus vulgaris [4] it was 14 mm; in the assay on Salmonella typhi [6], 9 mm; with Proteus mirabilis [8], 13 mm. Also, the zone of inhibition at 75 µg/mL in the assay on Salmonella typhi [5] was 13 mm; with Staphylococcus aureus [11], 18 mm; with Proteus mirabilis [12], 14 mm; with Proteus vulgaris [13], 18 mm. Besides, the zone of inhibition at 25 µg/mL with Proteus vulgaris [7], in the assay with Staphylococcus aureus [9] and in the assay with Proteus mirabilis [15] was 11 mm each time.
Consider `CCOC(=O)[C@@H]1[C@@H]([C@H]2[C@@H](Oc3ccccc3)C(=O)N2c2ccc(OC)cc2)C2CCCN2C12C(=O)c1ccccc1C2=O` (some centres undefined), for which the zone of inhibition at 100 µg/mL with Staphylococcus aureus [1] was determined as 24 mm; in the assay with Salmonella typhi [3] it was 23 mm; in the assay with Proteus mirabilis [10], 22 mm; with Proteus vulgaris [16] it was 26 mm. The zone of inhibition at 50 µg/mL in the assay on Staphylococcus aureus [2] was determined as 14 mm; in the assay with Proteus vulgaris [4] it was 18 mm; in the assay on Salmonella typhi [6] it was 15 mm; with Proteus mirabilis [8], 15 mm. For the same compound, the zone of inhibition at 75 µg/mL amounted to 17 mm with Salmonella typhi [5], 18 mm in the assay on Staphylococcus aureus [11], 18 mm in the assay on Proteus mirabilis [12] and 23 mm with Proteus vulgaris [13]. In addition, the zone of inhibition at 25 µg/mL came to 9 mm in the assay on Proteus vulgaris [7], 9 mm in the assay with Staphylococcus aureus [9], 11 mm in the assay on Salmonella typhi [14] and 8 mm in the assay on Proteus mirabilis [15].
As to `CCOC(=O)[C@@H]1[C@@H]([C@H]2[C@@H](c3ccccc3)C(=O)N2c2ccc(OC)cc2)C2CCCN2C12C(=O)c1ccccc1C2=O` (some centres undefined), the zone of inhibition at 100 µg/mL in the assay with Staphylococcus aureus [1] was determined as 28 mm; with Salmonella typhi [3] it was 20 mm; in the assay on Proteus mirabilis [10], 23 mm; with Proteus vulgaris [16], 24 mm. For the same compound, the zone of inhibition at 50 µg/mL is 13 mm in the assay with Staphylococcus aureus [2], 17 mm in the assay with Proteus vulgaris [4], 12 mm in the assay with Salmonella typhi [6] and 15 mm with Proteus mirabilis [8]. Besides, the zone of inhibition at 75 µg/mL was found to be 14 mm in the assay on Salmonella typhi [5], 16 mm with Staphylococcus aureus [11], 16 mm in the assay with Proteus mirabilis [12] and 20 mm in the assay with Proteus vulgaris [13]. Besides, the zone of inhibition at 25 µg/mL came out at 12 mm with Proteus vulgaris [7], 9 mm in the assay on Staphylococcus aureus [9], 9 mm in the assay on Salmonella typhi [14] and 10 mm with Proteus mirabilis [15].
Turning to `CCOC(=O)[C@@H]1[C@@H]([C@H]2[C@@H](Oc3ccccc3)C(=O)N2c2ccc(OC)cc2)CN(C)[C@]12C(=O)Nc1ccccc12`, the zone of inhibition at 100 µg/mL worked out at 26 mm with Staphylococcus aureus [1], 28 mm with Salmonella typhi [3], 32 mm in the assay with Proteus mirabilis [10] and 21 mm in the assay on Proteus vulgaris [16]. Also, the zone of inhibition at 50 µg/mL stood at 19 mm in the assay on Staphylococcus aureus [2], 14 mm in the assay on Proteus vulgaris [4], 14 mm in the assay with Salmonella typhi [6] and 13 mm in the assay on Proteus mirabilis [8]. The zone of inhibition at 75 µg/mL in the assay with Salmonella typhi [5] is 20 mm; in the assay with Staphylococcus aureus [11], 21 mm; with Proteus mirabilis [12] it was 22 mm; with Proteus vulgaris [13] it was 18 mm. The zone of inhibition at 25 µg/mL in the assay on Proteus vulgaris [7] came to 11 mm; in the assay with Staphylococcus aureus [9], 14 mm; with Salmonella typhi [14] it was 11 mm; with Proteus mirabilis [15] it was 12 mm.
On to `CCOC(=O)[C@@H]1[C@@H]([C@H]2[C@@H](c3ccccc3)C(=O)N2c2ccc(OC)cc2)CN(C)[C@]12C(=O)Nc1ccccc12`, for which the zone of inhibition at 100 µg/mL came out at 27 mm in the assay on Staphylococcus aureus [1], 29 mm with Salmonella typhi [3], 21 mm in the assay with Proteus mirabilis [10] and 20 mm with Proteus vulgaris [16]. Moreover, the zone of inhibition at 50 µg/mL in the assay on Staphylococcus aureus [2] came to 18 mm; in the assay on Proteus vulgaris [4] it was 14 mm; with Salmonella typhi [6] it was 15 mm; in the assay with Proteus mirabilis [8] it was 14 mm. Moreover, the zone of inhibition at 75 µg/mL is 21 mm in the assay with Salmonella typhi [5], 23 mm in the assay with Staphylococcus aureus [11], 18 mm with Proteus mirabilis [12] and 16 mm in the assay with Proteus vulgaris [13]. In addition, the zone of inhibition at 25 µg/mL in the assay with Proteus vulgaris [7] was determined as 11 mm; in the assay with Staphylococcus aureus [9] it was 14 mm; in the assay on Salmonella typhi [14] it was 12 mm; in the assay with Proteus mirabilis [15], 11 mm.
On to `CCOC(=O)[C@@H]1[C@@H]([C@H]2[C@@H](Oc3ccccc3)C(=O)N2c2ccc(OC)cc2)CN(C)[C@@]12C(=O)c1cccc3cccc2c13`, for which the zone of inhibition at 100 µg/mL came out at 19 mm with Staphylococcus aureus [1], 16 mm in the assay with Salmonella typhi [3], 20 mm in the assay with Proteus mirabilis [10] and 20 mm in the assay with Proteus vulgaris [16]. The zone of inhibition at 50 µg/mL in the assay with Staphylococcus aureus [2] is 9 mm; in the assay on Proteus vulgaris [4] it was 11 mm; with Salmonella typhi [6], 11 mm; with Proteus mirabilis [8] it was 11 mm. Further, the zone of inhibition at 75 µg/mL in the assay with Salmonella typhi [5] worked out at 14 mm; with Staphylococcus aureus [11], 15 mm; in the assay with Proteus mirabilis [12], 15 mm; in the assay with Proteus vulgaris [13] it was 15 mm. Also, the zone of inhibition at 25 µg/mL in the assay with Proteus vulgaris [7], with Salmonella typhi [14] and with Proteus mirabilis [15] was 9 mm throughout.
On to `CCOC(=O)[C@@H]1[C@@H]([C@H]2[C@@H](c3ccccc3)C(=O)N2c2ccc(OC)cc2)CN(C)[C@@]12C(=O)c1cccc3cccc2c13`, for which the zone of inhibition at 100 µg/mL with Staphylococcus aureus [1] came to 21 mm; in the assay on Salmonella typhi [3] it was 18 mm; in the assay on Proteus mirabilis [10] it was 18 mm; with Proteus vulgaris [16], 21 mm. The zone of inhibition at 50 µg/mL was found to be 10 mm in the assay with Staphylococcus aureus [2], 10 mm in the assay on Proteus vulgaris [4], 11 mm in the assay on Salmonella typhi [6] and 9 mm in the assay with Proteus mirabilis [8]. The zone of inhibition at 75 µg/mL with Salmonella typhi [5] came to 13 mm; in the assay with Staphylococcus aureus [11] it was 15 mm; with Proteus mirabilis [12] it was 13 mm; in the assay with Proteus vulgaris [13], 15 mm.
As for `CCOC(=O)[C@@H]1[C@@H]([C@H]2[C@@H](Oc3ccccc3)C(=O)N2c2ccc(OC)cc2)C2CCCN2[C@@]12C(=O)c1cccc3cccc2c13` (some centres undefined), the zone of inhibition at 100 µg/mL in the assay on Staphylococcus aureus [1] amounted to 18 mm; in the assay on Proteus mirabilis [10], 20 mm; with Proteus vulgaris [16], 20 mm. The zone of inhibition at 50 µg/mL stood at 11 mm in the assay on Staphylococcus aureus [2], 11 mm with Proteus vulgaris [4] and 13 mm in the assay on Proteus mirabilis [8]. In addition, the zone of inhibition at 25 µg/mL was 9 mm in the assay with Proteus vulgaris [7] and 10 mm with Proteus mirabilis [15]. The values for the zone of inhibition at 75 µg/mL with Staphylococcus aureus [11], in the assay with Proteus mirabilis [12] and in the assay on Proteus vulgaris [13] were 14 mm, 16 mm and 16 mm, respectively.
As for `CCOC(=O)[C@@H]1[C@@H]([C@H]2[C@@H](c3ccccc3)C(=O)N2c2ccc(OC)cc2)C2CCCN2[C@@]12C(=O)c1cccc3cccc2c13` (some centres undefined), the zone of inhibition at 100 µg/mL with Staphylococcus aureus [1] was found to be 21 mm; in the assay with Proteus mirabilis [10] it was 18 mm; in the assay on Proteus vulgaris [16] it was 20 mm. Also, the zone of inhibition at 50 µg/mL was 14 mm in the assay on Staphylococcus aureus [2], 12 mm in the assay with Proteus vulgaris [4] and 11 mm with Proteus mirabilis [8]. For the same compound, the zone of inhibition at 25 µg/mL with Staphylococcus aureus [9] and in the assay with Proteus mirabilis [15] was 9 mm each time. In addition, the zone of inhibition at 75 µg/mL in the assay on Staphylococcus aureus [11] was found to be 19 mm; in the assay with Proteus mirabilis [12] it was 14 mm; in the assay with Proteus vulgaris [13] it was 17 mm.
